Reference: ChEMBL document CHEMBL4706476, “Novel Tetrahydropyrido[4,3-d]pyrimidines as Potent Inhibitors of Chaperone Heat Shock Protein 90” (J Med Chem, 2016)
≈ marks a conversion by molar mass, not a printed value.

Legend:
CYP1A2 = CYP1A2 (Homo sapiens, UniProt P05177); experiment: Inhibition of CYP1A2 in human liver microsomes at 10 uM using phenacetin as substrate preincubated for 5 mins followed by NADPH addition and measured after 20 mins by LC-MS/MS analysis relative to control; assay type: ADME; conditions: probe phenacetin, time 25 min
[1] = Distribution coefficient, logD of compound at pH 7.4; assay type: physicochemical; conditions: octanol/water
[2] = molecular target: Heat shock protein HSP 90-alpha (Homo sapiens, UniProt P07900); experiment: Displacement of FITC-geldanamycin from N-terminal HSP90alpha (unknown origin) after 30 mins by fluorescence polarization competitive binding assay
[3] = Permeability of the compound at pH 7.4 by PAMPA; assay type: ADME; conditions: read-out: permeability
[4] = Intrinsic aqueous solubility of the compound; assay type: physicochemical
Endoplasmin = Endoplasmin (Homo sapiens, UniProt P14625); experiment: Displacement of FITC-geldanamycin from N-terminal GRP94 (unknown origin) after 30 mins by fluorescence polarization competitive binding assay
[5] = Selectivity ratio of IC50 for inhibition of FITC-geldanamycin binding to N-terminal GRP94 (unknown origin) to IC50 for inhibition of FITC-geldanamycin binding to N-terminal HSP90alpha (unknown origin)
HCT-116 = experiment: cells; conditions: Homo sapiens, HCT-116, 72 h
Description: Antiproliferative activity against human HCT-116 cells assessed as reduction in cell viability incubated for 72 hrs by MTT assay

MCF7 = experiment: cells; conditions: Homo sapiens, MCF7, 72 h

Chain of Endoplasmin (P14625 whole entry): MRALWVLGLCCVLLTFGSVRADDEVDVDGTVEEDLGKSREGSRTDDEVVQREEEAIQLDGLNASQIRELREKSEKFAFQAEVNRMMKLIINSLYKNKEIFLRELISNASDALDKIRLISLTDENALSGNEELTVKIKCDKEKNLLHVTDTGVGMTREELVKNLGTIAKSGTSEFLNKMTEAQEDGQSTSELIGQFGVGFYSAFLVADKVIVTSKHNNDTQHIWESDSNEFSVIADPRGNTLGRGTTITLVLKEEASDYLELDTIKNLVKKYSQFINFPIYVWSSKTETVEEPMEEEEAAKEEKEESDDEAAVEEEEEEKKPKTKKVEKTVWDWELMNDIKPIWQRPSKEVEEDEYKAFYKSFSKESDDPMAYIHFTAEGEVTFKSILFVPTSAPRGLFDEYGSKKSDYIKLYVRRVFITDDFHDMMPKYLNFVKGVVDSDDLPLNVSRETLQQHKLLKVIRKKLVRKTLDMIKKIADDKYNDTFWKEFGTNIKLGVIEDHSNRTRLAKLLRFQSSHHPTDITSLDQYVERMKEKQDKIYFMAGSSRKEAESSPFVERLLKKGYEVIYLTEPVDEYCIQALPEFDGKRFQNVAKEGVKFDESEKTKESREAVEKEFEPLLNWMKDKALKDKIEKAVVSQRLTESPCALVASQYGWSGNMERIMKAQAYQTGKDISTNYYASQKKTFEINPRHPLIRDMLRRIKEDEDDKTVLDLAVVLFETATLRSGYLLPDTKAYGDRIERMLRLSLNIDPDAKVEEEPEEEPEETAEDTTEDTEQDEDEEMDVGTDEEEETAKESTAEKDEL
Chain of CYP1A2 (P05177 whole entry): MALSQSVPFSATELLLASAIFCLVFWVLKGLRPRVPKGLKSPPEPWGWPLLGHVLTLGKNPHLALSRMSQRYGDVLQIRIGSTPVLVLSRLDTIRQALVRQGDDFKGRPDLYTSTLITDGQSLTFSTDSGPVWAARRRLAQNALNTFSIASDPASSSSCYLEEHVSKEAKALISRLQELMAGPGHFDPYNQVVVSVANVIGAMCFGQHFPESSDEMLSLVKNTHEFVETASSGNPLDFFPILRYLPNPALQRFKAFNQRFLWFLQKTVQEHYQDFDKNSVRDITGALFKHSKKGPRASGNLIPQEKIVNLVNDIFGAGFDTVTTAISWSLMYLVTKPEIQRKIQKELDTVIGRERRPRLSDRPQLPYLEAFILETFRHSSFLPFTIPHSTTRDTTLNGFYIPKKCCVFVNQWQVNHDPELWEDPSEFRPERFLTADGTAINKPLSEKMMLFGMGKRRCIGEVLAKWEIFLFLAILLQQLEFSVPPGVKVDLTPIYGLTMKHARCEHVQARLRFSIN

SMILES | inhibition at 20 min, 10 µM (CYP1A2) [%] | logD [1] | IC50 [2] [nM] | Papp [3] [×10⁻⁶ cm/s] | solubility [4] [µg/mL] | IC50 (Endoplasmin) [nM] | Ratio IC50 [5] | IC50 (HCT-116) [nM] | IC50 (MCF7) [nM]
O=c1cc(-c2ccccc2)oc2c1ccc1ccccc12 [ALPHA-NAPHTHOFLAVONE] | 76 | – | – | – | – | – | – | – | –
COCCOc1nc2c(c(OC)n1)CN(C(=O)c1cc(C(C)C)c(O)cc1O)CC2 | – | 2.56 | 30 | 75.8 | 93.5 (≈ 224 µM) | 232 | 7.7 | 250 | 140
CCCNc1nc(OCCOC)nc2c1CN(C(=O)c1cc(C(C)C)c(O)cc1O)CC2 | – | 2.92 | 32 | 78.7 | 114 (≈ 257 µM) | 796 | 24.9 | 400 | 350
COCCOc1nc2c(c(N(C)C)n1)CN(C(=O)c1cc(C(C)C)c(O)cc1O)CC2 | – | 2.35 | 16 | 83 | 153 (≈ 355 µM) | 195 | 12.2 | 260 | 330
CCOc1nc(OCCOC)nc2c1CN(C(=O)c1cc(C(C)C)c(O)cc1O)CC2 | – | 2.74 | 26 | 77.3 | 86.1 (≈ 200 µM) | 608 | 23.4 | 320 | 180
CCOc1ncc2c(n1)CCN(C(=O)c1cc(C(C)C)c(O)cc1O)C2 | – | 2.95 | 56 | 72.4 | 66 (≈ 185 µM) | 561 | 10 | 760 | 620
